From BindingDB's records for patent US20250059218 (The Leland Stanford Junior University, 2025)

Each compound was assayed against T1, Ectonucleotide pyrophosphatase/phosphodiesterase family member 1 (Mus musculus, UniProt P06802) (assay: ENPP1 Enzyme Activity Assay).
T1 sequence (P06802 whole entry): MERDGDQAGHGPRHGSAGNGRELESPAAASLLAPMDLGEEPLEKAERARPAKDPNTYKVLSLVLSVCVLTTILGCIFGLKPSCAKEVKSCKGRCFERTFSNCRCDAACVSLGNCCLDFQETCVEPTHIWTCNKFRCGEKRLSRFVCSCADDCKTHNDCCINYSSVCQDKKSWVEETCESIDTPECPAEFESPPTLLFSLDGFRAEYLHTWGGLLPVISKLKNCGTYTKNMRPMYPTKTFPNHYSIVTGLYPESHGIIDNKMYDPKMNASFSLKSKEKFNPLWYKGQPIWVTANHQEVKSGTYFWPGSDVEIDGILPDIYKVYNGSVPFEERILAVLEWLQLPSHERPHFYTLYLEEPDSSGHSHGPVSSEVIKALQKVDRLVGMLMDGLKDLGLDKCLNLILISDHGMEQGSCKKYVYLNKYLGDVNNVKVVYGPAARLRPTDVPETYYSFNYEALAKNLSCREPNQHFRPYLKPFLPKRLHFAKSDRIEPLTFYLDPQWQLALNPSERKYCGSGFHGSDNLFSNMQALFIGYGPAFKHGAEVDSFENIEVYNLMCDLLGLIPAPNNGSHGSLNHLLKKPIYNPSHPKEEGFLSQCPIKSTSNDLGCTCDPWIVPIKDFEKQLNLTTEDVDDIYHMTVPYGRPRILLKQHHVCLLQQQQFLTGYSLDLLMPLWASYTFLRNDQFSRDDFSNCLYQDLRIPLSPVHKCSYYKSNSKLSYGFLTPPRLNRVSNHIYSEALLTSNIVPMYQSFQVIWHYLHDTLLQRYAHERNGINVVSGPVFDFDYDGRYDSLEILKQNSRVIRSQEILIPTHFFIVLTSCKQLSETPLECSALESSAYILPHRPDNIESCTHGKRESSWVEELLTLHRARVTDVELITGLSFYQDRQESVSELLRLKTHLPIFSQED
Experimental: The AMP degradation product was converted to ATP, which was detected using luciferase. To achieve this, an enzyme mixture of polyphosphate:AMP phosphotransferase (PAP) and myokinase was prepared according to Goueli et al. in EP2771480. Briefly, PAP was diluted to 2 mg/mL in buffer containing 50 mM Tris pH 7.5, 0.1% NP-40. Myokinase was diluted to 2 KU/mL in buffer containing 3.2 mM ammonium sulfate pH 6.0, 1 mM EDTA, and 4 mM polyphosphate. The heat-inactivated ENPP1 reaction was incubated with PAP (0.01 μg/μL) and myokinase (0.0075 U/μL) in buffer containing 40 mM Tris pH 7.5, 0.05 mg/mL Prionex, 5 mM MgCl2, 20 μM polyphosphate, and 0.15 g/L phenol red (for ease of pipetting) for 3 hours (total reaction volume=20 μL). CellTiterGlo (20 uL) was added to the reaction according to manufacturer's protocol and luminescence was measured.

Row | SMILES | IC50 [nM]
1 | COc1ccc2c(NCc3ccc(B(O)O)cc3)ncnc2c1 [US20250059218, Compound 103] | > 100
2 | COc1cc2ncc(C#N)c(NCc3ccc(P(=O)(O)O)cc3)c2cc1OC [US20250059218, Compound 203] | < 50
3 | COc1cccc2c(N3CCC(CCB(O)O)CC3)c(C#N)cnc12 [US20250059218, Compound 216] | > 100
4 | COc1ccc2c(N3CCC(CCP(=O)(O)O)CC3)c(C#N)cnc2c1 [US20250059218, Compound 43] | < 50
5 | COc1cccc2c(NCc3ccc(P(=O)(O)O)cc3)nc(/C=C/c3cccnc3)nc12 [US20250059218, Compound 53] | < 50
6 | COc1cccc2c(NCc3ccc(B(O)O)cc3)c(C#N)cnc12 [US20250059218, Compound 214] | > 100
7 | COc1cccc2c(N3CCC(CCP(=O)(O)O)CC3)c(C#N)cnc12 [US20250059218, Compound 45] | < 50
8 | COc1ccc2c(N3CCC(CCOP(O)(O)=S)CC3)c(C#N)cnc2c1 [US20250059218, Compound 215] | > 100
9 | COc1cc(OC)c2ncc(C#N)c(N3CCC(CCP(=O)(O)O)CC3)c2c1 [US20250059218, Compound 46] | > 100
10 | COc1ccc2c(NCc3ccc(C(=O)NO)cc3)c(C#N)cnc2c1 [US20250059218, Compound 219] | > 100
11 | COc1cccc2c(NCc3ccc(B(O)O)cc3)ncnc12 [US20250059218, Compound 102] | < 50
12 | COc1cccc2c(N3CCC(CCCP(=O)(O)O)CC3)c(C#N)cnc12 [US20250059218, Compound 210] | < 50
13 | COc1cc2nccc(N3CCC(CCP(=O)(O)O)CC3)c2cc1OC [US20250059218, Compound 201] | > 100
14 | COc1ccc2c(NCc3ccc(P(=O)(O)O)cc3)c(C#N)cnc2c1 [US20250059218, Compound 204] | < 50
15 | COc1cccc2c(N3CCC(COP(O)(O)=S)CC3)c(C#N)cnc12 [US20250059218, Compound 50] | > 100
16 | COc1cc2ncnc(NCc3ccc(P(=O)(O)O)cc3)c2cc1OC [US20250059218, Compound 4] | < 50
17 | COc1cc2ncc(C#N)c(N3CCC(CCP(=O)(O)O)CC3)c2cc1OC [US20250059218, Compound 42] | < 50

Row | SMILES | IC50 [nM]
18 | COc1cc2ncc3ncn(Cc4ccc(CP(=O)(O)O)cc4)c3c2cc1OC [US20250059218, Compound 218] | > 100
19 | COc1cccc2c(NCc3ccc(P(=O)(O)O)cc3)c(C#N)cnc12 [US20250059218, Compound 52] | < 50
20 | COc1cc2ncc(Cl)c(N3CCC(CCP(=O)(O)O)CC3)c2cc1OC [US20250059218, Compound 207] | > 100
21 | COc1ccc2c(N3CCC(COP(O)(O)=S)CC3)c(C#N)cnc2c1 [US20250059218, Compound 48] | > 100
22 | COc1ccc2c(NCc3ccc(B(O)O)cc3)c(C#N)cnc2c1 [US20250059218, Compound 213] | > 100
23 | COc1cccc2c(NCc3ccc(C(=O)NO)cc3)ncnc12 [US20250059218, Compound 104] | > 100
24 | COc1cccc2c(NCc3ccc(CP(=O)(O)O)cc3)c(C#N)cnc12 [US20250059218, Compound 211] | < 50
25 | COc1ccc2c(N3CCC(CCB(O)O)CC3)c(C#N)cnc2c1 [US20250059218, Compound 217] | > 100
26 | COc1cc2ncnc(NCc3ccc(CP(=O)(O)O)cc3)c2cc1OC [US20250059218, Compound 5] | < 50
27 | COc1cc2ncnc(NCc3ccc(C(=O)NO)cc3)c2cc1OC [US20250059218, Compound 101] | > 100
28 | COc1cc2ncnc(Nc3ccc(P(=O)(O)O)cc3)c2cc1OC [US20250059218, Compound 2] | > 100
29 | COc1cc2ncc(N)c(N3CCC(CCP(=O)(O)O)CC3)c2cc1OC [US20250059218, Compound 205] | < 50
30 | COc1cccc2c(NCc3ccc(P(=O)(O)O)cc3)ncnc12 [US20250059218, Compound 36] | < 50
31 | COc1ccc2c(N3CCC(CCCP(=O)(O)O)CC3)c(C#N)cnc2c1 [US20250059218, Compound 209] | < 50
32 | COc1cccc2c(NCc3ccc(C(=O)NO)cc3)c(C#N)cnc12 [US20250059218, Compound 220] | > 100
33 | COc1cc2ncc(F)c(N3CCC(CCP(=O)(O)O)CC3)c2cc1OC [US20250059218, Compound 208] | > 100
